Data from US20220265629A1, “TREATMENT OF SYSTOLIC DYSFUNCTION AND HEART FAILURE WITH REDUCED EJECTION FRACTION WITH THE COMPOUND (R)-4-(1-((3-(DIFLUOROMETHYL)-1-METHYL-1H-PYRAZOL-4-YL)SULFONYL)-1-FLUOROETHYL)-N-(ISOXAZOL-3-YL)PIPERIDINE-1-CARBOXAMIDE” (MyoKardia, Inc., priority 2019, published 2022).
Values after ≈ are worked out from the molar mass of the structure shown. Read-outs that look alike come from different tables or passages of the source.

Legend:
[1] = HFrEF study Part 1 (SAD Cohorts 1 and 2): plasma pharmacokinetics; format: in vivo, human; conditions: for Cmax / Tmax / AUC(0-t) / AUC(0-inf) / half-life: human, plasma, oral; for AUC(0-t): read-out: AUC0-24; for Plasma concentration, Mean / Plasma concentration, Median: pooled SAD Cohorts 1 and 2
Source text: Part 1 was a randomized, crossover, DB, placebo-controlled, two-cohort, sequential ascending (oral) single-close study in ambulatory patients with heart failure. All patients received placebo and 2 or 3 active doses of Compound I. Each patient underwent sequential, single-close treatment events separated by no fewer than 5 days and no more than 14 days. Patients in Cohort 1 may also return for a fourth dosing period (open label) after the SRC reviews available data and recommends the close. Patients enrolled prior to the implementation of Amendment 1 may be offered the opportunity to return for the open-label period. Patients in Cohort 2 participated in 2 to 4 dosing periods, based on SRC decision. Patients were randomized to one of the different dosing sequences outlined in FIG. 5A. Multiple patients could be closed at the same time or during the same week depending on administrative issues, i.e., capacity and scheduling.
For each dosing period, patients were admitted to the clinical site on Day −1. Patients were assessed for absence of exclusion criteria (e.g., new lab abnormalities and/or conditions that indicate the patient is clinically unstable). They received Compound I or placebo in the morning of Day 1 followed by serial PK and PD assessments, as well as serial safety assessments. Patients were discharged on Day 3 (i.e., ˜48 hours following Day 1 dosing). An additional outpatient plasma PK sample was taken on the morning of Day 4 at 72 hours postclose.
Study medication consisted of Compound I 5 mg tablets, 25 mg tablets, 100 mg tablets, or matching placebo tablets. In Part 1 (SAD), Compound I or placebo was administered after an overnight fast (at least 6 hours), while in Part 2 (MAD), Compound I was administered after a 2 hour fast (Cohort A) or with food (Cohorts B, C, and D). The close was ingested with a minimum of 240 mL of water, but more water was ingested as needed. The entire close was administered over a period of up to 15 minutes. The time of close used to determine future assessments was the time the last tablet was taken. In the cohorts for Part 2 (MAD), a BID regimen was used.
In Part 1 (SAD), patients fasted overnight (approximately 6 hours) through 4 hours postclose. With the exception of the water consumed with the close, water could be ingested until approximately 1 hour prior to dosing and approximately 1 hour after dosing. If closes were split, subjects fasted 6 hours prior to the first half-close. A light, low-fat snack could be consumed 2 hours after the first half-close and a fast continued through 2 hours after the second half-close.
Eight patients with stable heart failure were enrolled and randomized to receive Compound I or placebo at a dose of 175, 350, 525, 450 (split close), or 550 mg (split close) in a crossover study design with four periods (A-D). All patients had heart failure with a nonischemic etiology and a mean Baseline ejection fraction of 43%. All eight subjects received placebo, 175 mg, and 350 mg (in random sequence) during Periods A to C. Six subjects elected to continue into a fourth open-label Period D, and closes received included: 350 mg (n=1), 525 mg (n=2), 450 mg (divided into 2 aliquots; n=1) and 550 mg (divided into 2 aliquots, n=2). The single doses were administered to patients under fasted conditions. The split closes were given four hours apart with patients fasting six hours prior to the first half-close and 2 hours after the second half-close, with a light snack allowed 2 hours after the first half-close. Subsequently, patients underwent extended observation, followed by a washout period. This process was repeated until each patient had received at least three closes (Compound I or placebo).
Four subjects with stable heart failure were enrolled and randomized to receive Compound I or placebo at a dose of 400 mg (split close) or 500 mg (split close) over three periods (A-C). […]

[2] = Physicochemical and biopharmaceutical properties of the drug substance (PBPK model input); conditions: for blood plasma ratio: blood and plasma
Source text: A PBPK mechanistic absorption model was developed by integrating (1) physicochemical and biopharmaceutical properties obtained from in vitro experimental measurements or in silico estimates based on chemical structure using ADMET Predictor (version 7.2) in GastroPlus (Version 9.6); (2) formulation properties of the drug product such as drug substance particle size distribution, formulation type, and rate of release or dissolution; (3) compartmental model kinetic parameters such as systemic clearance, volume of distribution, and inter-compartmental rate constants; and (4) gut physiology parameters such as gastro-intestinal (GI) transit time, pH, absorptive surface area, compartment dimensions and fluid content. The preexisting physiological parameters in GastroPlus (Version 9.6) for American healthy volunteers and beagle dogs under fasted conditions were used without modification.

[3] = 175 mg, SAD Cohort 1, 175 mg (n = 8)
[4] = 350 mg, SAD Cohort 1, 350 mg (n = 8)
[5] = 350 mg, SAD Cohort 1, 4th dose 350 mg (n = 1)
[6] = 400 mg, SAD Cohort 2, 400 mg split dose (n = 4)
[7] = 450 mg, SAD Cohort 1, Split dose 450 mg (n = 1)
[8] = 500 mg, SAD Cohort 2, 500 mg split dose (n = 4)
[9] = 525 mg, SAD Cohort 1, 525 mg (n = 2)
[10] = 550 mg, SAD Cohort 1, Split dose 550 mg (n = 2)
[11] = crystalline free-base drug substance

Compound: Cn1cc(S(=O)(=O)[C@@](C)(F)C2CCN(C(=O)Nc3ccon3)CC2)c(C(F)F)n1 [Compound I, (R)-4-(1-((3-(difluoromethyl)-1-methyl-1H-pyrazol-4-yl)sulfonyl)-1-fluoroethyl)-N-(isoxazol-3-yl)piperidine-1-carboxamide]
- AUC0-∞ ([1]; SAD Cohort 1, 175 mg (n = 8)): 53,800 h × ng/mL
- AUC0-∞ ([1]; SAD Cohort 1, 350 mg (n = 8)): 103,000 h × ng/mL
- AUC0-∞ ([1]; SAD Cohort 1, 525 mg (n = 2)): 127,000 h × ng/mL
- Cmax ([1]; 175 mg, 175 mg single dose, read-out: Cmax, mean (SD)): 1510 ng/mL
- Tmax [1, 3]: 4.93 h
- AUC(0-t) [1, 3]: 27 µg·h/mL
- Cmax ([1]; 175 mg, SAD Cohort 1, 175 mg (n = 8), read-out: Cmax): 1510 ng/mL
- Cmax ([1]; 350 mg, 350 mg single dose, read-out: Cmax, mean (SD)): 2760 ng/mL
- Tmax [1, 4]: 6.15 h
- AUC(0-t) [1, 4]: 50.5 µg·h/mL
- Cmax ([1]; 350 mg, SAD Cohort 1, 350 mg (n = 8), read-out: Cmax): 2760 ng/mL
- Tmax [1, 5]: 4.05 h
- AUC(0-t) [1, 5]: 70.1 µg·h/mL
- Cmax ([1]; 350 mg, SAD Cohort 1, 4th dose 350 mg (n = 1), read-out: Cmax): 3590 ng/mL
- Tmax [1, 6]: 9 h
- AUC(0-t) [1, 6]: 162 µg·h/mL
- Cmax ([1]; 400 mg, SAD Cohort 2, 400 mg split dose (n = 4), read-out: Cmax): 5460 ng/mL
- Tmax [1, 7]: 12 h
- AUC(0-t) [1, 7]: 79.2 µg·h/mL
- Cmax ([1]; 450 mg, SAD Cohort 1, Split dose 450 mg (n = 1), read-out: Cmax): 4420 ng/mL
- Tmax [1, 8]: 8.5 h
- AUC(0-t) [1, 8]: 191 µg·h/mL
- Cmax ([1]; 500 mg, SAD Cohort 2, 500 mg split dose (n = 4), read-out: Cmax): 5880 ng/mL
- Cmax ([1]; 525 mg, 525 mg single dose, read-out: Cmax, mean (SD)): 2720 ng/mL
- Tmax [1, 9]: 5.74 h
- AUC(0-t) [1, 9]: 54 µg·h/mL
- Cmax ([1]; 525 mg, SAD Cohort 1, 525 mg (n = 2), read-out: Cmax): 2720 ng/mL
- Tmax [1, 10]: 8.93 h
- AUC(0-t) [1, 10]: 97.9 µg·h/mL
- Cmax ([1]; 550 mg, SAD Cohort 1, Split dose 550 mg (n = 2), read-out: Cmax): 5280 ng/mL
- AUC(0-inf) ([1]; 175 mg single dose, read-out: AUC0-∞, mean (SD)): 53.8 µg·h/mL
- AUC(0-inf) ([1]; 350 mg single dose, read-out: AUC0-∞, mean (SD)): 103 µg·h/mL
- AUC(0-inf) ([1]; 525 mg single dose, read-out: AUC0-∞, mean (SD)): 127 µg·h/mL
- half-life ([1]; HFrEF patients (Cohort 1), read-out: half-life): 20 to 25 h
- half-life ([1]; SAD Cohort 1, 175 mg (n = 8), read-out: t½ (converted)): 22 h
- half-life ([1]; SAD Cohort 1, 350 mg (n = 8), read-out: t½ (converted)): 21 h
- half-life ([1]; SAD Cohort 1, 525 mg (n = 2), read-out: t½ (converted)): 24.7 h
- AUC(0-inf) ([1]; SAD Cohort 1, Split dose 450 mg (n = 1), read-out: AUC0-∞): 235 µg·h/mL
- half-life ([1]; SAD Cohort 1, Split dose 450 mg (n = 1), read-out: t½ (converted)): 30.6 h
- AUC(0-inf) ([1]; SAD Cohort 1, Split dose 550 mg (n = 2), read-out: AUC0-∞): 213 µg·h/mL
- half-life ([1]; SAD Cohort 1, Split dose 550 mg (n = 2), read-out: t½ (converted)): 21.5 h
- AUC(0-inf) ([1]; SAD Cohort 2, 400 mg split dose (n = 4), read-out: AUC0-∞): 192 µg·h/mL
- half-life ([1]; SAD Cohort 2, 400 mg split dose (n = 4), read-out: t½ (converted)): 24.1 h
- AUC(0-inf) ([1]; SAD Cohort 2, 500 mg split dose (n = 4), read-out: AUC0-∞): 231 µg·h/mL
- half-life ([1]; SAD Cohort 2, 500 mg split dose (n = 4), read-out: t½ (converted)): 24 h
- Plasma concentration, Mean ([1]; group <2000 ng/mL): 1390 ng/mL
- Plasma concentration, Median ([1]; group <2000 ng/mL): 1307 ng/mL
- Plasma concentration, Mean ([1]; group ≥2000 ng/mL): 3823 ng/mL
- Plasma concentration, Median ([1]; group ≥2000 ng/mL): 3795 ng/mL
- Biopharmaceutics Classification System (BCS) class [2]: Class II
- solubility ([2]; aqueous buffer, 37° C., across pH 1.2-9.6): ~43 µg/mL (≈ 98.8 µM)
- blood plasma ratio ([2]; Dog, in vitro measured, read-out: B:P (Dog), ratio of concentration of drug in blood to plasma): 0.8
- blood plasma ratio ([2]; Human, in vitro measured, read-out: B:P (Human), ratio of concentration of drug in blood to plasma): 0.85
- hygroscopicity [2, 11]: nonhygroscopic
- solubility in aqueous media [2, 11]: practically insoluble
- Papp ([2]; human, Caco-2, in vitro measured, read-out: Permeability, Caco-2): 17.9 ×10⁻⁶ cm/s
- logD ([2]; pH 7.4, Measured): 3.07
